# In PubChem BioAssay (NCI):
#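 Where inhibition never reached the appropriate level, the endpoint shown equals the highest concentration tested. Otherwise, values were interpolated linearly from a five-concentration, 48-hour dose response in 96-well plates. GI50 is the concentration that inhibits growth by half. At the TGI there is no net growth.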
# Columns and labels:
# Test in all cases: growth of human tumour cells (NCI), 48 h
# 786-0 renal = system: 786-0 renal
# A498 renal = system: A498 renal
# A549 NSCLC = system: A549 NSCLC
# ACHN renal = system: ACHN renal
# BT-549 breast = system: BT-549 breast
# COLO 205 colon = system: COLO 205 colon
# DU-145 prostate = system: DU-145 prostate
# EKVX NSCLC = system: EKVX NSCLC
# HCC-2998 colon = system: HCC-2998 colon
# HCT-116 colon = system: HCT-116 colon
# HCT-15 colon = system: HCT-15 colon
# HL-60(TB) leukemia = system: HL-60(TB) leukemia
# HOP-62 NSCLC = system: HOP-62 NSCLC
# HOP-92 NSCLC = system: HOP-92 NSCLC
# HS 578T breast = system: HS 578T breast
# HT29 colon = system: HT29 colon
# IGROV1 ovarian = system: IGROV1 ovarian
# KM12 colon = system: KM12 colon
# LOX IMVI melanoma = system: LOX IMVI melanoma
# M14 melanoma = system: M14 melanoma
# MALME-3M melanoma = system: MALME-3M melanoma
# MCF7 breast = system: MCF7 breast
# MDA-MB-231 breast = system: MDA-MB-231 breast
# MDA-MB-435 = system: MDA-MB-435
# MOLT-4 leukemia = system: MOLT-4 leukemia
# NCI-H226 lung = system: NCI-H226 lung
# NCI-H23 lung = system: NCI-H23 lung
# NCI-H460 lung = system: NCI-H460 lung
# NCI-H522 lung = system: NCI-H522 lung
# NCI/ADR-RES ovarian = system: NCI/ADR-RES ovarian
# OVCAR-3 ovarian = system: OVCAR-3 ovarian
# OVCAR-4 ovarian = system: OVCAR-4 ovarian
# OVCAR-5 ovarian = system: OVCAR-5 ovarian
# OVCAR-8 ovarian = system: OVCAR-8 ovarian
# PC-3 prostate = system: PC-3 prostate
# RPMI-8226 leukemia = system: RPMI-8226 leukemia
# RXF 393 renal = system: RXF 393 renal
# SF-268 CNS = system: SF-268 CNS
# SF-295 CNS = system: SF-295 CNS
# SF-539 CNS = system: SF-539 CNS
# SK-MEL-2 melanoma = system: SK-MEL-2 melanoma
# SK-MEL-28 melanoma = system: SK-MEL-28 melanoma
# SK-MEL-5 melanoma = system: SK-MEL-5 melanoma
# SK-OV-3 ovarian = system: SK-OV-3 ovarian
# SN12C renal = system: SN12C renal
# SNB-19 CNS = system: SNB-19 CNS
# SNB-75 CNS = system: SNB-75 CNS
# SR leukemia = system: SR leukemia
# SW-620 colon = system: SW-620 colon
# T-47D breast = system: T-47D breast
# TK-10 renal = system: TK-10 renal
# U251 CNS = system: U251 CNS
# UACC-257 melanoma = system: UACC-257 melanoma
# UACC-62 melanoma = system: UACC-62 melanoma
# UO-31 renal = system: UO-31 renal
smiles,measurement,setting,value
COc1ccc2c(c1)[C@]1(C[C@H]1c1ccc3c(/C=C/c4ccc(CN5C[C@@H](C)O[C@@H](C)C5)cc4)n[nH]c3c1)C(=O)N2,GI50,786-0 renal,2.3 µM
same,TGI,786-0 renal,8.58 µM
same,GI50,A498 renal,2.34 µM
same,TGI,A498 renal,30.6 µM
same,GI50,A549 NSCLC,2.72 µM
same,TGI,A549 NSCLC,> 55.4 µM
same,GI50,ACHN renal,2.86 µM
same,TGI,ACHN renal,> 100 µM
same,GI50,BT-549 breast,1.75 µM
same,TGI,BT-549 breast,5.29 µM
same,GI50,COLO 205 colon,< 0.0209 µM
same,TGI,COLO 205 colon,15.1 µM
same,GI50,DU-145 prostate,4.91 µM
same,TGI,DU-145 prostate,45.6 µM
same,GI50,EKVX NSCLC,6.01 µM
same,TGI,EKVX NSCLC,> 100 µM
same,GI50,HCC-2998 colon,4.18 µM
same,TGI,HCC-2998 colon,> 59.7 µM
same,GI50,HCT-116 colon,1.77 µM
same,TGI,HCT-116 colon,12.1 µM
same,GI50,HCT-15 colon,3.34 µM
same,TGI,HCT-15 colon,> 100 µM
same,GI50,HL-60(TB) leukemia,2.69 µM
same,TGI,HL-60(TB) leukemia,13.7 µM
same,GI50,HOP-62 NSCLC,8.81 µM
same,TGI,HOP-62 NSCLC,> 100 µM
same,GI50,HOP-92 NSCLC,5.34 µM
same,TGI,HOP-92 NSCLC,39.1 µM
same,GI50,HS 578T breast,4.84 µM
same,TGI,HS 578T breast,49.6 µM
same,GI50,HT29 colon,2.83 µM
same,TGI,HT29 colon,11.6 µM
same,GI50,IGROV1 ovarian,9.69 µM
same,TGI,IGROV1 ovarian,> 100 µM
same,GI50,KM12 colon,0.0143 µM
same,TGI,KM12 colon,> 73.6 µM
same,GI50,LOX IMVI melanoma,1.96 µM
same,TGI,LOX IMVI melanoma,10.4 µM
same,GI50,M14 melanoma,3.25 µM
same,TGI,M14 melanoma,20.6 µM
same,GI50,MALME-3M melanoma,2.22 µM
same,TGI,MALME-3M melanoma,8.63 µM
same,GI50,MCF7 breast,1.59 µM
same,TGI,MCF7 breast,> 75.4 µM
same,GI50,MDA-MB-231 breast,4.35 µM
same,TGI,MDA-MB-231 breast,> 54 µM
same,GI50,MDA-MB-435,3.75 µM
same,TGI,MDA-MB-435,21.8 µM
same,GI50,MOLT-4 leukemia,2.23 µM
same,TGI,MOLT-4 leukemia,> 100 µM
same,GI50,NCI-H226 lung,14.5 µM
same,TGI,NCI-H226 lung,> 100 µM
same,GI50,NCI-H23 lung,2.87 µM
same,TGI,NCI-H23 lung,31.8 µM
same,GI50,NCI-H460 lung,1.6 µM
same,TGI,NCI-H460 lung,12.1 µM
same,GI50,NCI-H522 lung,6.4 µM
same,TGI,NCI-H522 lung,> 100 µM
same,GI50,NCI/ADR-RES ovarian,2.71 µM
same,TGI,NCI/ADR-RES ovarian,24.9 µM
same,GI50,OVCAR-3 ovarian,4.19 µM
same,TGI,OVCAR-3 ovarian,18.5 µM
same,GI50,OVCAR-4 ovarian,2.65 µM
same,TGI,OVCAR-4 ovarian,> 100 µM
same,GI50,OVCAR-5 ovarian,8.26 µM
same,TGI,OVCAR-5 ovarian,> 100 µM
same,GI50,OVCAR-8 ovarian,5.06 µM
same,TGI,OVCAR-8 ovarian,51.1 µM
same,GI50,PC-3 prostate,2.54 µM
same,TGI,PC-3 prostate,> 100 µM
same,GI50,RPMI-8226 leukemia,1.59 µM
same,TGI,RPMI-8226 leukemia,> 100 µM
same,GI50,RXF 393 renal,1.85 µM
same,TGI,RXF 393 renal,4.4 µM
same,GI50,SF-268 CNS,4.63 µM
same,TGI,SF-268 CNS,> 90.6 µM
same,GI50,SF-295 CNS,1.79 µM
same,TGI,SF-295 CNS,> 100 µM
same,GI50,SF-539 CNS,1.63 µM
same,TGI,SF-539 CNS,4.63 µM
same,GI50,SK-MEL-2 melanoma,8.28 µM
same,TGI,SK-MEL-2 melanoma,> 100 µM
same,GI50,SK-MEL-28 melanoma,6.2 µM
same,TGI,SK-MEL-28 melanoma,38.1 µM
same,GI50,SK-MEL-5 melanoma,1.77 µM
same,TGI,SK-MEL-5 melanoma,3.87 µM
same,GI50,SK-OV-3 ovarian,15.1 µM
same,TGI,SK-OV-3 ovarian,> 100 µM
same,GI50,SN12C renal,5.15 µM
same,TGI,SN12C renal,> 56.7 µM
same,GI50,SNB-19 CNS,9.74 µM
same,TGI,SNB-19 CNS,> 100 µM
same,GI50,SNB-75 CNS,1.84 µM
same,TGI,SNB-75 CNS,13.4 µM
same,GI50,SR leukemia,0.269 µM
same,TGI,SR leukemia,6.61 µM
same,GI50,SW-620 colon,2.46 µM
same,TGI,SW-620 colon,> 61 µM
same,GI50,T-47D breast,2.68 µM
same,TGI,T-47D breast,> 86.9 µM
same,GI50,TK-10 renal,11.8 µM
same,TGI,TK-10 renal,> 61.3 µM
same,GI50,U251 CNS,5.14 µM
same,TGI,U251 CNS,45.6 µM
same,GI50,UACC-257 melanoma,6.8 µM
same,TGI,UACC-257 melanoma,> 60.5 µM
same,GI50,UACC-62 melanoma,9.79 µM
same,TGI,UACC-62 melanoma,39.6 µM
same,GI50,UO-31 renal,2.84 µM
same,TGI,UO-31 renal,> 100 µM
